Laboratory results as given in patent US8986738B2, “Inhalative and instillative use of semifluorinated alkanes as an active substance carrier in the intrapulmonary area” (NOVALIQ GmbH, priority 2008, dated 2015).

Assay: Intratracheal bolus instillation of alpha-tocopherol solution in F6H8
Type: in vivo
Conditions: pigs
Text: In the clinical experiment on pigs some of that solution was intratracheally instilled bolus-wise.

location of the drug after exhaling the SFA: remained in the alveolar region
SMILES: Cc1c(C)c2c(c(C)c1O)CC[C@@](C)(CCC[C@H](C)CCC[C@H](C)CCCC(C)C)O2 [alpha-tocopherol]
transfer of the drug into the bloodstream: no transfer of the drug into the bloodstream was detected
